Assay results from publication PMC9861858, “Stereoselective Synthesis and Antiproliferative Activities of Tetrafunctional Diterpene Steviol Derivatives” (International Journal of Molecular Sciences, 2023).
Values after ≈ are worked out from the molar mass of the structure shown.

Key:
MCF-7 cells = assay: MTT antiproliferative assay, MCF-7; format: cell-based, human; conditions: Homo sapiens, 72 h, values <20% considered negligible, read-out: Growth inhibition (%) ± SEM, MCF-7; for inhibition at 10 µM: MCF7, 10 μM; for inhibition at 30 µM: MCF7, 30 μM
Procedure: (§1) The in vitro antiproliferative activities of the synthesised aminotriols 5–18 against a panel of different human cancer cell lines of gynecological origin, including cervical (SiHA and HeLa), breast (MCF7 and MDA-MB-231), ovary (A2780) cancers and NIH/3T3 healthy fibroblasts, were assayed by the MTT method. Cisplatin, a clinically applied anticancer agent was used as a reference compound, and the results are summarised in Figure 3 and Table S1 in the Supplementary Materials.
(§2) The growth-inhibitory effects of the presented terpenes were determined by a standard MTT [3-(4,5-dimethylthiazol2-yl)-2,5-diphenyltetrazolium bromide] assay against […] human cancer cell lines (cervical cancer HeLa and SiHa cell lines, breast cancer MCF-7 and MDA-MB-231 and ovarian cancer A2780). Murine embryonal fibroblast cells (NIH/3T3) were used to determine selectivity. All cell lines were purchased from the European Collection of Cell Cultures (Salisbury, UK). The cells were cultivated in Eagle’s minimal essential medium supplemented with 10% fetal bovine serum, 1% non-essential amino acids, and 1% Antibiotic-Antimycotic complex (penicillin, streptomycin, amphotericin B) at 37 °C in a humidified atmosphere containing 5% CO2. All media and supplements were purchased from Lonza Group Ltd. (Basel, Switzerland). Cancer cells were seeded into 96-well plates (5000 cells/well) after an overnight incubation, and the test compounds were added at two different concentrations (10 μM and 30 μM) and incubated for another 72 h under cell-culturing conditions. Finally, 20 μL of a 5 mg/mL MTT solution was added to each well, and the contents were incubated for a further 4 h. The medium was removed, and the precipitated formazan crystals were dissolved in DMSO by shaking at 37 °C for 60 min. The absorbance was measured at 545 nm by using a microplate reader (SPECTROStar Nano, BMG Labtech, Offenburg, Germany). Clinically utilised anticancer agent cisplatin (Ebewe GmbH, Unterach, Austria) was included as a reference molecule. Calculations were performed using the GraphPad Prism 9 software (GraphPad Software Inc., San Diego, CA, USA).

[1] = Intestinal-specific parallel artificial membrane permeability assay (PAMPA-GI); format: in vitro ADME; conditions: gradient pH system (pH donor 6.5 → pH acceptor 7.4) after 4 h, at 37 °C, mean ± S.E.M, n = 3
Procedure: (§3) Filtrates and calibration solutions (5–500 μ M) of the kinetic solubility study and starting donor and acceptor solutions of the PAMPA-GI study were investigated by HPLC-DAD-MS. LC-MS analysis was performed using a Waters 2795 HPLC with a Waters 2487 DAD detector coupled with a Micromass Quattro Ultima TMPt quadrupol mass spectrometer equipped with an ESI source. Measurements were performed on a Waters XSelect C18 (150 × 4.6 mm; 3.5 μm) column with a […] eluent flow rate and the temperature set at 40 °C. The composition of eluent A was MilliQ water with 0.1% formic acid, and that of eluent B was an acetonitrile and MilliQ water mixture (95:5, v/v), also with 0.1% formic acid. The following linear gradient program was used: 0–6 min, 10–100% B; this was held for 3 min, then from 9.01 min on, back to the starting composition of 10% B–90% A. The injection volume was 10 μL for each sample. Chromatographic profiles were registered at dual wavelength, 220 and 240 nm. The mass spectrometer was used in negative ion mode for samples 2, 3 and 4b, and in positive ion mode for other samples. The operating parameters of the MS were: Mass range of m/z 150–700. Nitrogen gas flow rate was 350 L/h, temperature of 350 °C and pressure of 6 bar. The quadrupol temperature was 120 °C, and the capillary voltage was 2.5 kV. Fragmentor’s voltage of 60 V.
(§4) Intestinal (GI) permeability was determined by using an intestinal-specific parallel artificial membrane permeability assay (PAMPA-GI [36]]). […] All solutions were filtered by MultiScreen HTS Vacuum Manifold (Merck Ltd., Budapest, Hungary) after the incubation period. The target concentration was 500 μM for every sample investigated. The intestinal-specific effective permeability of the samples was determined by PAMPA-GI. To prepare starting solutions for a 96-well donor plate, 15 μLs of the 10 mM DMSO stock solution of investigation compounds and 285 μL pH 6.5 phosphate buffer solution were mixed. These solutions were left in a shaking incubator (300 rpm) at 25 °C for 1 h. Meanwhile, a 96-well acceptor plate was filled with 300 μL of pH 7.4 PBS buffer solution containing 5% DMSO. The intestinal-specific artificial membrane was prepared the following way: the hydrophobic filter material of the donor plate was coated with a mixture of phosphatidylcholine/cholesterol = 2:1 (5 μL, 4 % (w/v) in dodecane). After that, all donor wells were filled with 150 μL of the starting donor solutions, and they were carefully placed on the acceptor plate and incubated at 37 °C for 4 h. After the end of the incubation period the donor and acceptor plates were separated carefully. A total of 150 μL of the donor, acceptor and the starting donor solutions were sampled and analysed with HPLC-DAD-MS. The effective permeability and membrane retention of drugs were calculated using the following equations: Pe=−2.303/A·(t−τss)·1/1+rv·lg[−rv+(1+rv/1−MR)·]CD(t)/CD(0) MR=1−CD(t)/CD(0)−VA·CA(t)/VD·CD(0) where Pe is the effective permeability coefficient (cm/s), A is the filter area (0.3 cm^2), VD and VA are the volumes in the donor (0.15 cm^3) and acceptor phase (0.3 cm^3), t is the incubation time (s), τSS is the time to reach steady-state (s), CD(t) is the concentration of the compound in the donor phase at time point t (mol/cm^3), CD(0) is the concentration of the compound in the donor phase at time point zero (mol/cm^3), rv is the aqueous compartment volume ratio (VD/VA), MR is the membrane retention factor.

A2780 cells = assay: MTT antiproliferative assay, A2780; format: cell-based, human; conditions: Homo sapiens, 72 h, values <20% considered negligible, read-out: Growth inhibition (%) ± SEM, A2780; for inhibition at 10 µM: A2780, 10 μM; for inhibition at 30 µM: A2780, 30 μM
Procedure: as §1, §2

HeLa cells = assay: MTT antiproliferative assay, HeLa; format: cell-based, human; conditions: Homo sapiens, HeLa, 72 h, values <20% considered negligible, read-out: Growth inhibition (%) ± SEM, HeLa
Procedure: as §1, §2

SiHa cells = assay: MTT antiproliferative assay, SiHa; format: cell-based, human; conditions: Homo sapiens, SiHa, 72 h, values <20% considered negligible, read-out: Growth inhibition (%) ± SEM, SiHa
Procedure: as §1, §2

MDA-MB-231 cells = assay: MTT antiproliferative assay, MDA-MB-231; format: cell-based, human; conditions: Homo sapiens, 72 h, values <20% considered negligible, read-out: Growth inhibition (%) ± SEM, MDA-MB-231; for inhibition at 10 µM: MDA-MB-231, 10 μM; for inhibition at 30 µM: MDA-MB-231, 30 μM
Procedure: as §1, §2

[2] = Kinetic aqueous solubility; format: physicochemical; conditions: phosphate buffered saline with 5% DMSO, aqueous with cosolvent or surfactant or cyclodextrin, kinetic from dmso stock; after 2 h, at 37 °C in PBS, pH 7.4, 5% DMSO; target concentration 500 μM; mean ± S.E.M, n = 3
Procedure: as §3, §4

NIH/3T3 fibroblasts = assay: MTT assay on fibroblasts (selectivity); format: cell-based, murine; conditions: Mus musculus, 72 h, values <20% considered negligible, read-out: Growth inhibition (%) ± SEM, NIH/3T3; for inhibition at 10 µM: NIH3T3, 10 μM; for inhibition at 30 µM: NIH3T3, 30 μM
Procedure: as §1, §2

SMILES	inhibition at 10 µM (MCF-7 cells)	inhibition at 30 µM (MCF-7 cells)	Papp at 4 h, 500 µM ([1]; PAMPA, read-out: PAMPA-GI Pe)	PAMPA-GI MR (membrane retention) [1]	inhibition at 10 µM (A2780 cells)	inhibition at 30 µM (A2780 cells)	inhibition at 10 µM (HeLa cells)	inhibition at 30 µM (HeLa cells)	inhibition at 10 µM (SiHa cells)	inhibition at 30 µM (SiHa cells)	inhibition at 10 µM (MDA-MB-231 cells)	inhibition at 30 µM (MDA-MB-231 cells)	solubility kinetic at 2 h [2]	melting point	inhibition at 10 µM (NIH/3T3 fibroblasts)	inhibition at 30 µM (NIH/3T3 fibroblasts)
COC(=O)[C@]1(C)CCC[C@@]2(C)[C@@H]3CCC4(O)C[C@@]3(CC[C@@H]21)[C@@H](O)[C@]4(O)CN[C@H](C)c1ccc(F)cc1 [Compound 11, (4R,4aS,6aR,7R,8R,11aS,11bS)-Methyl 8-((((R)-1-(4-Fluorophenyl)ethyl)amino)methyl)-7,8,9-trihydroxy-4,11b-dimethyltetradecahydro-6a,9-methanocyclohepta[a]naphthalene-4-carboxylate]	96.23 ± 0.59%	96.27 ± 0.65%	0.48 ± 0.05 ×10⁻⁶ cm/s	22.4 ± 2.0%	97.06 ± 0.3%	97.51 ± 0.22%	95.4 ± 1.08%	95.8 ± 1.11%	93.66 ± 0.85%	94.59 ± 0.49%	93.66 ± 0.59%	94.31 ± 0.51%	145 ± 14.1 µM (≈ 73.2 µg/mL)	63 to 67 °C	44.4 ± 0.7%	90.5 ± 1.16%
COC(=O)[C@]1(C)CCC[C@@]2(C)C3CC[C@]4(O)C[C@@]3(CCC21)[C@@H](O)[C@]4(O)CN[C@H](C)c1ccc2ccccc2c1 (stereo partly drawn) [Compound 12, (4R,6aR,7R,8R,9S,11bS)-Methyl 7,8,9-Trihydroxy-4,11b-dimethyl-8-((((R)-1-(naphthalen-2-yl)ethyl)amino)methyl)tetradecahydro-6a,9-methanocyclohepta[a]naphthalene-4-carboxylate]	96.35 ± 0.36%	95.87 ± 0.38%		92.6 ± 2.1%	96.68 ± 0.36%	96.38 ± 0.3%	96.82 ± 0.56%	96.94 ± 0.49%	96.08 ± 0.6%	95.49 ± 0.86%	95.84 ± 0.29%	95.62 ± 0.34%	13.3 ± 0.9 µM (≈ 7.13 µg/mL)	93 to 95 °C	90.07 ± 0.51%	94.67 ± 0.24%
COC(=O)[C@]1(C)CCC[C@@]2(C)C3CC[C@]4(O)C[C@@]3(CCC21)[C@@H](O)[C@]4(O)CN[C@@H](C)c1ccc2ccccc2c1 (stereo partly drawn) [Compound 13, (4R,6aR,7R,8R,9S,11bS)-Methyl 7,8,9-Trihydroxy-4,11b-dimethyl-8-((((S)-1-(naphthalen-2-yl)ethyl)amino)methyl)tetradecahydro-6a,9-methanocyclohepta[a]naphthalene-4-carboxylate]	95.74 ± 0.64%	95.44 ± 0.85%		92.6 ± 1.1%	96.64 ± 0.35%	96.79 ± 0.2%	94.5 ± 1.24%	94.9 ± 1.29%	93.8 ± 1.81%	93.77 ± 0.41%	93.33 ± 0.29%	93.21 ± 0.46%	11.9 ± 1.8 µM (≈ 6.38 µg/mL)	81 to 83 °C	72 ± 1.81%	90.5 ± 1.31%
COC(=O)[C@]1(C)CCC[C@@]2(C)C3CC[C@]4(O)C[C@@]3(CCC21)[C@@H](O)[C@]4(O)CNCc1cccc2ccccc12 (stereo partly drawn) [Compound 14, (4R,6aR,7R,8R,9S,11bS)-Methyl 7,8,9-Trihydroxy-4,11b-dimethyl-8-(((naphthalen-1-ylmethyl)amino)methyl)tetradecahydro-6a,9-methanocyclohepta[a]naphthalene-4-carboxylate]	97.57 ± 0.19%	97.66 ± 0.28%		94.2 ± 2.0%	92.2 ± 3.33%	96.81 ± 0.23%	97.2 ± 0.92%	98.14 ± 0.36%	97.24 ± 0.39%	96.7 ± 0.65%	97.41 ± 0.21%	96.46 ± 0.34%	18.9 ± 2.4 µM (≈ 9.86 µg/mL)	138 to 140 °C	93.25 ± 0.51%	97.34 ± 0.26%
